# From patent US20220396819A1, “METHOD FOR PRODUCING PEPTIDE HAVING PHYSIOLOGICAL ACTIVITY, AND PEPTIDE COMPRISING SHORT LINKER” (priority 2019, published 2022)
# Where two headings read alike, the source gives them in different places. Positions of bridges follow the written chain, without caps; N, C: chain ends. No end group written: not given here.
# T1: EpoR (Homo sapiens, UniProt P19235)
# T1 construct: host or cells: cells included in the PathHunter eXpress EpoR-JAK2 Functional Assay Kit
# T1 sequence (P19235 25-508): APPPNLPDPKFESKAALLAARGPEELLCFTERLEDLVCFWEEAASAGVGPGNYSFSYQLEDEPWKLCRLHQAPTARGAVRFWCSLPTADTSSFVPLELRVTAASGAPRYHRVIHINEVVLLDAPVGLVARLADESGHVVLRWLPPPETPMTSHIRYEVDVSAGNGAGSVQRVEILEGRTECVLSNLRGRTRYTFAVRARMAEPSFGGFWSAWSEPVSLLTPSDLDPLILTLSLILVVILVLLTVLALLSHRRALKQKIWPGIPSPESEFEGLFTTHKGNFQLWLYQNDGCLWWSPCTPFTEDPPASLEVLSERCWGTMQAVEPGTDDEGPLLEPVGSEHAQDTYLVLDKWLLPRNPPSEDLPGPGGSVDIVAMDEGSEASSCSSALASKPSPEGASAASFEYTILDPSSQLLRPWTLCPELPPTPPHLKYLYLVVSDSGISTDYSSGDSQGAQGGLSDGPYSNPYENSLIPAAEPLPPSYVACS
# Target: T1, EpoR
# Test: EpoR activation ability, PathHunter eXpress EpoR-JAK2 Functional Assay Kit
# Assay type: cell-based
# Conditions: for maximum activation ability compared with rhEPO: Example 22, FIG. 35; for EpoR activation, concentration dependence: culture supernatant, FIGS. 35, 55 to 57, 61; for EpoR activation, relative activity among linker lengths: Example 38, cell-free translation solution, FIG. 70
# Procedure: The EpoR activation ability of the EPO-PAS dimer peptide was evaluated using PathHunter (registered trademark) eXpress EpoR-JAK2 Functional Assay Kit (DiscoverX).
# (§1) Cells for EPO activity evaluation included in PathHunter (registered trademark) eXpress EpoR-JAK2 Functional Assay Kit were seeded on a 96-well plate and cultured for 24 hours at 37° C. under 5% CO2. […] As a negative control, the culture supernatant (FIG. 32, lane 18) obtained by culturing as described in Example 20 except for using a vector containing no gene for expressing the EPO-PAS dimer peptide, diluted at the same ratio as the culture supernatant containing AET-EPO-PAS8 or AET-EPO-PAS22, was added. The prepared Substrate Reagent was added to the cells stimulated at room temperature for 3 hours, and the cells were incubated for 60 minutes. The chemiluminescence intensity was quantified with a Nivo plate reader (Perkin Elmer).
# The EpoR activation ability of the EPO-PAS dimer peptide linker variant was evaluated using PathHunter (registered trademark) eXpress EpoR-JAK2 Functional Assay Kit (DiscoverX).
# as §1, with “48,” for “32,”, “26)” for “18)”, “30” for “20”
# The EpoR activation ability of the stabilized EPO-PAS dimer peptide was evaluated using PathHunter (registered trademark) eXpress EpoR-JAK2 Functional Assay Kit (DiscoverX).
# Cells for EPO activity evaluation included in PathHunter (registered trademark) eXpress EpoR-JAK2 Functional Assay Kit were seeded on a 96-well plate and cultured for 24 hours at 37° C. under 5% CO2. To the cells, a culture supernatant containing 14.2 μg/L to 220 pg/L AET-EPO-PAS22, AET-EPO-PAS22-PAS200, or AET-EPO-PAS22-PAS600 (cultured as described in Example 20 or 33) was added. As a negative control, the culture supernatant (FIG. 58, lane 20) obtained by culturing as described in Example 33 except for using a vector containing no gene for expressing the EPO-PAS dimer peptide, diluted at the same ratio as the culture supernatant containing AET-EPO-PAS22, AET-EPO-PAS22-PAS200, or AET-EPO-PAS22-PAS600, was added. The prepared Substrate Reagent was added to the cells stimulated at room temperature for 3 hours, and the cells were incubated for 60 minutes. The chemiluminescence intensity was quantified with a Nivo plate reader (Perkin Elmer).
# Cells for EPO activity evaluation included in PathHunter (registered trademark) eXpress EpoR-JAK2 Functional Assay Kit were seeded on a 96-well plate and cultured for 24 hours at 37° C. under 5% CO2. To the cells, a cell-free translation solution with translated AET-EPO-PAS8, AET-EPO-PAS49-b, or AET-EPO-PAS100-b diluted to a predetermined concentration was added. As a negative control, a cell-free translation solution with untranslated peptide, diluted at the same ratio as the cell-free translation solution with translated AET-EPO-PAS8, AET-EPO-PAS49, or AET-EPO-PAS100, was added. The prepared Substrate Reagent was added to the cells stimulated at room temperature for 3 hours, and the cells were incubated for 60 minutes. The chemiluminescence intensity was quantified with a Nivo plate reader (Perkin Elmer).
# [1] = Example 22, Table 4, dimers as culture supernatant, read-out: EC50 (g/L) (converted)
# [2] = Example 35, Table 7, AET-EPO-PAS22 value is that of Example 22
molecule,measurement,setting,value
"AETGGLYACHMGPMTWVCQPLRGAAPAAPAPAAPAAPAPAAPAAPAPAAPAAPAPAAPAAPAPAAPAAPAPAGGLYACHMGPMTWVCQPLRG (disulfide 9-18, 78-87) [AET-EPO-PAS49]",EC50,read-out: EC50 (g/L) (converted),0.501 nM
"AETGGLYACHMGPMTWVCQPLRGAAPAAPAPAAPAAPAPAAPAAPGGLYACHMGPMTWVCQPLRG (disulfide 9-18, 51-60) [AET-EPO-PAS22]",maximum activation ability compared with rhEPO,,almost the same as that of rhEPO
same,EC50,[1],0.0531 nM
same,"EpoR activation, concentration dependence",,activated EpoR in a concentration-dependent manner
"AETGGLYACHMGPMTWVCQPLRGAAPAAPAPGGLYACHMGPMTWVCQPLRG (disulfide 9-18, 37-46) [AET-EPO-PAS8]",maximum activation ability compared with rhEPO,,almost the same as that of rhEPO
same,EC50,[1],0.036 nM
same,"EpoR activation, concentration dependence",,activated EpoR in a concentration-dependent manner
"AETGGLYACHMGPMTWVCQPLRGGGGGSGGGGGLYACHMGPMTWVCQPLRG (disulfide 9-18, 37-46) [AET-EPO-GS8]",EC50,,0.103 nM
"AETGGLYACHMGPMTWVCQPLRGGGGGSGGGGSGGGGSGGGGSGGGGLYACHMGPMTWVCQPLRG (disulfide 9-18, 51-60) [AET-EPO-GS22]",EC50,,0.216 nM
"MAETGGLYACHMGPMTWVCQPLRGAAPAAPAPGGLYACHMGPMTWVCQPLRG (disulfide 10-19, 38-47) [MAET-EPO-PAS8]","EpoR activation, relative activity among linker lengths",,higher activity than MAET-EPO-PAS100-b
"AET-EPO-PAS22-PAS200: stabilized EPO-PAS dimer peptide, PAS200 bound to the C-terminus of AET-EPO-PAS22, SEQ ID NO: 144 (protein) AETGGLYACHMGPMTWVCQPLRGAAPAAPAPAAPAAPAPAAPAAPGGLYACHMGPMTWVCQPLRGAAPAAPAPAAPAAPAPAAPAAPAPAAPAAPAPAAPAAPAPAAPAAPAPAAPAAPAPAAPAAPAPAAPAAPAPAAPAAPAPAAPAAPAPAAPAAPAPAAPAAPAPAAPAAPAPAAPAAPAPAAPAAPAPAAPAAPAPAAPAAPAPAAPAAPAPAAPAAPAPAAPAAPAPAAPAAPAPAAPAAPAPAAPAAPAPAAPAAPAP",EC50,[2],0.85 ng/mL
"AET-EPO-PAS22-PAS600: stabilized EPO-PAS dimer peptide, PAS600 bound to the C-terminus of AET-EPO-PAS22, SEQ ID NO: 145 (protein) AETGGLYACHMGPMTWVCQPLRGAAPAAPAPAAPAAPAPAAPAAPGGLYACHMGPMTWVCQPLRGAAPAAPAPAAPAAPAPAAPAAPAPAAPAAPAPAAPAAPAPAAPAAPAPAAPAAPAPAAPAAPAPAAPAAPAPAAPAAPAPAAPAAPAPAAPAAPAPAAPAAPAPAAPAAPAPAAPAAPAPAAPAAPAPAAPAAPAPAAPAAPAPAAPAAPAPAAPAAPAPAAPAAPAPAAPAAPAPAAPAAPAPAAPAAPAPAAPAAPAPAAPAAPAPAAPAAPAPAAPAAPAPAAPAAPAPAAPAAPAPAAPAAPAPAAPAAPAPAAPAAPAPAAPAAPAPAAPAAPAPAAPAAPAPAAPAAPAPAAPAAPAPAAPAAPAPAAPAAPAPAAPAAPAPAAPAAPAPAAPAAPAPAAPAAPAPAAPAAPAPAAPAAPAPAAPAAPAPAAPAAPAPAAPAAPAPAAPAAPAPAAPAAPAPAAPAAPAPAAPAAPAPAAPAAPAPAAPAAPAPAAPAAPAPAAPAAPAPAAPAAPAPAAPAAPAPAAPAAPAPAAPAAPAPAAPAAPAPAAPAAPAPAAPAAPAPAAPAAPAPAAPAAPAPAAPAAPAPAAPAAPAPAAPAAPAPAAPAAPAPAAPAAPAPAAPAAPAPAAPAAPAPAAPAAPAPAAPAAPAP",EC50,[2],0.32 ng/mL
MAETGGLYACHMGPMTWVCQPLRGSAPSPSSAPASASAPASPASASASASPASSPASASSASPAASSASPASSGGLYACHMGPMTWVCQPLRG (MAET-EPO-PAS49-b; DISULFID (10)..(19) Disulfid bridge between Cys-10 and Cys-19; DISULFID (79)..(88) Disulfid bridge between Cys-79 and Cys-88) MAETGGLYACHMGPMTWVCQPLRGSAPSPSSAPASASAPASPASASASASPASSPASASSASPAASSASPASSGGLYACHMGPMTWVCQPLRG,"EpoR activation, relative activity among linker lengths",,higher activity than MAET-EPO-PAS100-b
"AET-EPO-PAS100: EPO-PAS dimer peptide linker variant, PAS linker of 100 amino acids, SEQ ID NO: 128 (protein) AETGGLYACHMGPMTWVCQPLRGAAPAAPAPAAPAAPAPAAPAAPAPAAPAAPAPAAPAAPAPAAPAAPAPAAPAAPAPAAPAAPAPAAPAAPAPAAPAAPAPAAPAAPAPAAPAAPAPAAPAGGLYACHMGPMTWVCQPLRG",EC50,"Example 32, Table 6, rhEPO, AET-EPO-PAS8, AET-EPO-PAS22 values are those in Example 22",6.6 ng/mL
